The record followed here is US20250270209A1 (INTERLINE THERAPEUTICS, INC., priority 2022, published 2025).

Structures are written as SMILES.

One test concerns the target LRRK2 wild type enzyme (Homo sapiens, UniProt Q5S007). As to the kind of experiment: Biochemical Assay: LRRK2 TR-FRET (LanthaScreen) kinase assay with LRRKtide substrate. Conditions: LRRK2 Inhibition, Table 8. In a few lines:
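TR-FRET detection (Tb-labelled phospho-LRRKtide antibody, EDTA stop, 30 min) followed a 120 min, 23 °C reaction of 3 nM wild-type human LRRK2 with LRRKtide (400 nM) and ATP (25 μM) in Tris pH 8.0. Compounds: 11-point 3-fold series from 10 μM, 15 min enzyme preincubation.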
In general terms: TR-FRET usually uses a lanthanide donor and a delayed reading to cut background.

Test [1] has as its target T1, wild type LRRK2 overexpressed in recombinant HEK-293T cells (Homo sapiens, UniProt Q5S007).
T1 construct: host or cells: HEK293T (transient transfection with pCMV-LRRK2 WT plasmid)
As to the kind of experiment: pS935 LRRK2 Cell Assay (HTRF, phospho-LRRK2 Ser935). The class given is cell-based. To be noted: LRRK2 Inhibition, Table 8, 2 hours compound incubation. Put shortly:
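Phospho-Ser935 LRRK2 measured by two-antibody HTRF (Eu-cryptate donor, d2 acceptor; 665/615 nm ratio) after overnight detection at 23° C. Before lysis, transiently LRRK2-transfected HEK-293T cells were exposed 2 h at 37° C to a 9-point, 3-fold series from 10 μM, with DMSO at 0.2%.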

LRRK2 wild type enzyme, sequence (Q5S007 whole entry): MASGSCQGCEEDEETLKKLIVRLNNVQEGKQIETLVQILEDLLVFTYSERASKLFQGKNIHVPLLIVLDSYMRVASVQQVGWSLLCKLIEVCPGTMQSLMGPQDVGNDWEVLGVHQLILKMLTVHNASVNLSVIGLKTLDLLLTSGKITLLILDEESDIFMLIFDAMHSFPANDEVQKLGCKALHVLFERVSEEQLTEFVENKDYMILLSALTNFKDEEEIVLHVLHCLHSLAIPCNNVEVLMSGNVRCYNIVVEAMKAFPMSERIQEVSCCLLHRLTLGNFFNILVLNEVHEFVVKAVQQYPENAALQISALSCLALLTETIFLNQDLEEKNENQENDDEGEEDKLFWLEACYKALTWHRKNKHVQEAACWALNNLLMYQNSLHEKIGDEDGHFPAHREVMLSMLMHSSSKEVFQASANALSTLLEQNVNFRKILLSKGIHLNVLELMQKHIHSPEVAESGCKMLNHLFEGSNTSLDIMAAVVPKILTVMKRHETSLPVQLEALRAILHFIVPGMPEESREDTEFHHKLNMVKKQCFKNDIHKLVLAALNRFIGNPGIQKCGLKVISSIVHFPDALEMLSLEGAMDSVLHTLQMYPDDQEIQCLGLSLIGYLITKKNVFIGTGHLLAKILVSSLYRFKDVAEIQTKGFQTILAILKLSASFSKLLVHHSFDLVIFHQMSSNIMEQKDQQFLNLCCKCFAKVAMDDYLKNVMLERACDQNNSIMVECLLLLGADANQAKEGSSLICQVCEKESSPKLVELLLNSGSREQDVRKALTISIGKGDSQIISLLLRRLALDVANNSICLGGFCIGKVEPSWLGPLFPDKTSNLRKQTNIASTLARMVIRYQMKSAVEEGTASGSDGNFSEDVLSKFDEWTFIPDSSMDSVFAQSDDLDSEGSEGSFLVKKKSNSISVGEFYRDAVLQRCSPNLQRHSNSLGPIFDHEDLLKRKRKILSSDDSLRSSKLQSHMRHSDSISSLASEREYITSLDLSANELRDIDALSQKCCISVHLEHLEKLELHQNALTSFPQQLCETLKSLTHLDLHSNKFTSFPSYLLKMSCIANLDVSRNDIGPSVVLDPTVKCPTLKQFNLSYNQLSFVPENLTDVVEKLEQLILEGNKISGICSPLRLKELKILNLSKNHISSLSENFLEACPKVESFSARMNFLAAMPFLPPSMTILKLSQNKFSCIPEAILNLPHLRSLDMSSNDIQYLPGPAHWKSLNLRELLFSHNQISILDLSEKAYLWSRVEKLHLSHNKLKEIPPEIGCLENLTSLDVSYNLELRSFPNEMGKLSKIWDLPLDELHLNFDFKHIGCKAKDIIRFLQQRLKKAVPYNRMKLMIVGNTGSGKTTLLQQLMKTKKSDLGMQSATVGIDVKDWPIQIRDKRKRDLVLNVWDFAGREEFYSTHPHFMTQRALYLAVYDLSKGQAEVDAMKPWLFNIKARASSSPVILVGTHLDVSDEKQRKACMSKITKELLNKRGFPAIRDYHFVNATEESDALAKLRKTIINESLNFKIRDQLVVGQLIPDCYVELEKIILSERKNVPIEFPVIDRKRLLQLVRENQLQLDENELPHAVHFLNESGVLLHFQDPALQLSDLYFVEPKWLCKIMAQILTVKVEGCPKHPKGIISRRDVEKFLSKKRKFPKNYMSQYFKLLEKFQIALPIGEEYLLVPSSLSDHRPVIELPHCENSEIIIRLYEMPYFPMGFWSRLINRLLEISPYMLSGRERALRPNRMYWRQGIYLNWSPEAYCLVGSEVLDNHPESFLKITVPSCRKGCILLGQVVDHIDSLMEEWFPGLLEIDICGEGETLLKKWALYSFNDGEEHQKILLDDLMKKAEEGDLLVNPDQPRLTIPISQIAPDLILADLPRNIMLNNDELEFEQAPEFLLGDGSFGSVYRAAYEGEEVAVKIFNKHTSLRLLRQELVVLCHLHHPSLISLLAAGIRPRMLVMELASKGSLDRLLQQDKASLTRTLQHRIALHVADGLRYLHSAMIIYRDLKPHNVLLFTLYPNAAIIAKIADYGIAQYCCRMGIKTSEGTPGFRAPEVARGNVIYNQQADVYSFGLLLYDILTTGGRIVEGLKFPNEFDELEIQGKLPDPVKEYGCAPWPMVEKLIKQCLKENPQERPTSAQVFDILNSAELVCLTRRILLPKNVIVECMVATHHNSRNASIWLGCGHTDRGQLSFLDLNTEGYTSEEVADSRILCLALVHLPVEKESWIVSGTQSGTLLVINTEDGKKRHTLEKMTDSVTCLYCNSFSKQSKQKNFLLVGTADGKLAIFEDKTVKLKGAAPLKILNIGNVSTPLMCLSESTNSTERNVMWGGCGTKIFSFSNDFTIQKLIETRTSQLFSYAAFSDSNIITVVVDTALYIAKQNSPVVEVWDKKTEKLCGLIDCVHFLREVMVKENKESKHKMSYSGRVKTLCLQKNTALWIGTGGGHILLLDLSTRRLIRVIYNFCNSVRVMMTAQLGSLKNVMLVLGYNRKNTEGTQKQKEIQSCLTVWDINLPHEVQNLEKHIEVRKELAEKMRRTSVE
T1 sequence (Q5S007 whole entry): as above

The term IC50 denotes the concentration needed to halve the response being measured. Turning to `C[C@@H]1C[C@H](n2c(CC(=O)NC[C@@H]3CCCO3)nc3cnc4ccc(C#N)cc4c32)CCO1` [Compound 154, 2-{8-cyano-1-[(2R,4R)-2-methyloxan-4-yl]-1H-imidazo[4,5-c]quinolin-2-yl}-N-{[(2S)-oxolan-2-yl]methyl}acetamide], the IC50 against LRRK2 wild type enzyme was 0.674 nM; in test [1], 39.2 nM.
`CCOc1ccc(NC(=O)Cc2nc3cnc4ccc(C#N)cc4c3n2[C@@H]2CCO[C@H](C)C2)cn1` [Compound 274, N-(6-ethoxy-3-pyridyl){3-[(2R,4R)-2-methyltetrahydro-2H-pyran-4-yl]-12-cyano-3,5,8-triazatricyclo[7.4.0.0^2,6]trideca-1,4,6,8,10,12-hexaen-4-yl}acetamide]: the concentration for half-maximal inhibition (IC50) at LRRK2 wild type enzyme is 0.445 nM; in test [1] it was 7.97 nM.
Taken in the same sequence, the figures for `COCC1(NC(=O)Cc2nc3cnc4ccc(C#N)cc4c3n2[C@@H]2CCO[C@H](C)C2)CC1` [Compound 276] were 0.922 nM and 86 nM.
`C[C@@H]1C[C@H](n2c(CS(=O)(=O)C3CC3)nc3cnc4ccc(C#N)cc4c32)CCO1` [Compound 74, 2-[(cyclopropanesulfonyl)methyl]-1-[(2R,4R)-2-methyloxan-4-yl]-1H-imidazo[4,5-c]quinoline-8-carbonitrile]: the figures for the IC50 (at LRRK2 wild type enzyme; in test [1]) were 5.92 nM and 430 nM, respectively.
In the same order, the values of `C[C@@H]1C[C@H](n2c(C3CC(=O)N(CC4CC4)C3)nc3cnc4ccc(C#N)cc4c32)CCO1` (mixture of isomers) [Compound 69, 2-[(3RS)-1-(cyclopropylmethyl)-5-oxopyrrolidin-3-yl]-1-[(2R,4R)-2-methyloxan-4-yl]-1H-imidazo[4,5-c]quinoline-8-carbonitrile] are 2.28 nM and 182 nM.
For `C[C@@H]1C[C@H](n2c(CC(=O)Nc3ccno3)nc3cnc4ccc(Cl)cc4c32)CCO1` [Compound 351, N-5-isoxazolyl{3-[(2R,4R)-2-methyltetrahydro-2H-pyran-4-yl]-12-chloro-3,5,8-triazatricyclo[7.4.0.0^2,6]trideca-1(9),2(6),4,7,10,12-hexaen-4-yl}acetamide], the IC50 was determined as 0.597 nM against LRRK2 wild type enzyme and 10.4 nM in test [1].
In the same order, the values of `C[C@@H]1C[C@H](n2c(CC(=O)Nc3ccn(CCO)n3)nc3cnc4ccc(C#N)cc4c32)CCO1` [Compound 175, 2-{8-cyano-1-[(2R,4R)-2-methyloxan-4-yl]-1H-imidazo[4,5-c]quinolin-2-yl}-N-[1-(2-hydroxyethyl)-1H-pyrazol-3-yl]acetamide] are 0.32 nM and 132 nM.
As for `C[C@@H]1C[C@H](n2c(CC(=O)Nc3cc(C(C)(C)F)no3)nc3cnc4ccc(C#N)cc4c32)CCO1` [Compound 341, N-[3-(1-fluoro-1-methylethyl)-5-isoxazolyl]{3-[(2R,4R)-2-methyltetrahydro-2H-pyran-4-yl]-12-cyano-3,5,8-triazatricyclo[7.4.0.0^2,6]trideca-1(9),2(6),4,7,10,12-hexaen-4-yl}acetamide], the IC50 at LRRK2 wild type enzyme is 0.423 nM; in test [1], 8.13 nM.
In the same order, the values of `C[C@@H]1C[C@H](n2c(CC(=O)Nc3cnn(C)c3)nc3cnc4ccc(Cl)cc4c32)CCO1` [Compound 193, 2-{8-chloro-1-[(2R,4R)-2-methyloxan-4-yl]-1H-imidazo[4,5-c]quinolin-2-yl}-N-(1-methyl-1H-pyrazol-4-yl)acetamide] are 0.261 nM and 5.59 nM.
With `C[C@@H]1C[C@H](n2c(C3CC(=O)N(c4ccnn4C)C3)nc3cnc4ccc(C#N)cc4c32)CCO1` (stereo partly drawn) [Compound 103, 2-[1-(1-methyl-1H-pyrazol-5-yl)-5-oxopyrrolidin-3-yl]-1-[(2R,4R)-2-methyloxan-4-yl]-1H-imidazo[4,5-c]quinoline-8-carbonitrile], the IC50 against LRRK2 wild type enzyme was 1.98 nM; in test [1], 400 nM.
In the same order, the values of `C[C@@H]1C[C@H](n2c(CC(=O)Nc3cncn(C)c3=O)nc3cnc4ccc(C#N)cc4c32)CCO1` [Compound 223, N-(1-methyl-6-oxo-1,6-dihydro-5-pyrimidinyl){3-[(2R,4R)-2-methyltetahydro-2H-pyran-4-yl]-12-cyano-3,5,8-triazatricyclo[7.4.0.0^2,6]trideca-1,4,6,8,10,12-hexaen-4-yl}acetamide] are 0.316 nM and 10.8 nM.
Taken in the same sequence, the figures for `CN1CC(n2c(CC(=O)NCC3CC3)nc3cnc4ccc(C#N)cc4c32)CCC1=O` (single isomer, unassigned) [Compound 90] were 1.42 nM and 799 nM.
In the same order, the values of `C[C@@H]1C[C@H](n2c(CC(=O)Nc3cccn(CC(C)(C)O)c3=O)nc3cnc4ccc(C#N)cc4c32)CCO1` [Compound 240, N-[1-(2-hydroxy-2-methylpropyl)-2-oxo-1,2-dihydro-3-pyridyl]{3-[(2R,4R)-2-methyltetrahydro-2H-pyran-4-yl]-12-cyano-3,5,8-triazatricyclo[7.4.0.0^2,6]trideca-1(9),2(6),4,7,10,12-hexaen-4-yl}acetamide] are 0.328 nM and 26.7 nM.
Turning to `C[C@@H]1C[C@H](n2c([C@@H]3CN(CC4CC4)C(=O)O3)nc3cnc4ccc(C#N)cc4c32)CCO1` [Compound 37, 2-[(5S)-3-(cyclopropylmethyl)-2-oxo-1,3-oxazolidin-5-yl]-1-[(2R,4R)-2-methyloxan-4-yl]-1H-imidazo[4,5-c]quinoline-8-carbonitrile], the values for the IC50 (against LRRK2 wild type enzyme; in test [1]) were 53.1 nM and 3700 nM, respectively.
Taken in the same sequence, the figures for `C[C@@H]1C[C@H](n2c(CC(=O)Nc3ccn(C)n3)nc3cnc4ccc(C#N)cc4c32)CCO1` [Compound 188, 2-{8-cyano-1-[(2R,4R)-2-methyloxan-4-yl]-1H-imidazo[4,5-c]quinolin-2-yl}-N-(1-methyl-1H-pyrazol-3-yl)acetamide] were 0.321 nM and 7.58 nM.
For the compound `C[C@@H]1C[C@H](n2c(CC(=O)Nc3cccnc3O)nc3cnc4ccc(C#N)cc4c32)CCO1` [Compound 218, N-(2-hydroxy-3-pyridyl){3-[(2R,4R)-2-methyltetrahydro-2H-pyran-4-yl]-12-cyano-3,5,8-triazatricyclo[7.4.0.0^2,6]trideca-1,4,6,8,10,12-hexaen-4-yl}acetamide], the IC50 amounted to 0.45 nM on LRRK2 wild type enzyme and 83.5 nM in test [1].
Taken in the same sequence, the figures for `C[C@@H]1C[C@H](n2c(C3CC(=O)N(C)C3)nc3cnc4ccc(C#N)cc4c32)CCO1` (mixture of isomers) [Compound 53, 2-[(3RS)-1-methyl-5-oxopyrrolidin-3-yl]-1-[(2R,4R)-2-methyloxan-4-yl]-1H-imidazo[4,5-c]quinoline-8-carbonitrile] were 3.16 nM and 666 nM.
Take `C[C@@H]1C[C@H](n2c([C@H]3CN(CC4CC4)C(=O)O3)nc3cnc4ccc(C#N)cc4c32)CCO1` [Compound 36, 2-[(5R)-3-(cyclopropylmethyl)-2-oxo-1,3-oxazolidin-5-yl]-1-[(2R,4R)-2-methyloxan-4-yl]-1H-imidazo[4,5-c]quinoline-8-carbonitrile]: the concentration for half-maximal inhibition (IC50) stood at 1.16 nM against LRRK2 wild type enzyme and 63.8 nM in test [1].
Consider `C[C@@H]1C[C@H](n2c([C@H]3CCN(C(=O)C4CC4)C3)nc3cnc4ccc(C#N)cc4c32)CCO1` [Compound 41, 2-[(3S)-1-cyclopropanecarbonylpyrrolidin-3-yl]-1-[(2R,4R)-2-methyloxan-4-yl]-1H-imidazo[4,5-c]quinoline-8-carbonitrile], for which the figures for the half-inhibitory concentration (IC50) (at LRRK2 wild type enzyme; in test [1]) were 9.62 nM and 639 nM, respectively.
In the same order, the values of `C[C@@H]1C[C@H](n2c(CC(=O)Nc3cccnc3)nc3cnc4ccc(Cl)cc4c32)CCO1` [Compound 325, N-3-pyridyl{3-[(2R,4R)-2-methyltetrahydro-2H-pyran-4-yl]-12-chloro-3,5,8-triazatricyclo[7.4.0.0^2,6]trideca-1(9),2(6),4,7,10,12-hexaen-4-yl}acetamide] are 0.44 nM and 2.54 nM.
Regarding `C[C@@H]1C[C@H](n2c(CC(=O)Nc3nccnc3Cl)nc3cnc4ccc(C#N)cc4c32)CCO1` [Compound 308, N-(3-chloro-2-pyrazinyl){3-[(2R,4R)-2-methyltetrahydro-2H-pyran-4-yl]-12-cyano-3,5,8-triazatricyclo[7.4.0.0^2,6]trideca-1(9),2(6),4,7,10,12-hexaen-4-yl}acetamide], the IC50 on LRRK2 wild type enzyme amounted to 1.25 nM; in test [1], 18.6 nM.
Taken in the same sequence, the figures for `C[C@@H]1C[C@H](n2c(C3CC(=O)N([C@@H]4CCOC4)C3)nc3cnc4ccc(C#N)cc4c32)CCO1` (stereo partly drawn) [Compound 44, 1-[(2R,4R)-2-methyloxan-4-yl]-2-{5-oxo-1-[(3R)-oxolan-3-yl]pyrrolidin-3-yl}-1H-imidazo[4,5-c]quinoline-8-carbonitrile] were 3.43 nM and 555 nM.
Take `C[C@@H]1C[C@H](n2c(CC(=O)Nc3ccon3)nc3cnc4ccc(C#N)cc4c32)CCO1` [Compound 184, 2-{8-cyano-1-[(2R,4R)-2-methyloxan-4-yl]-1H-imidazo[4,5-c]quinolin-2-yl}-N-(1,2-oxazol-3-yl)acetamide]: the IC50 at LRRK2 wild type enzyme was 0.299 nM; in test [1] it was 4.73 nM.
For the compound `C[C@@H]1C[C@H](n2c(CNC(=O)OC3CC3)nc3cnc4ccc(C#N)cc4c32)CCO1` [Compound 10, cyclopropyl N-({8-cyano-1-[(2R,4R)-2-methyloxan-4-yl]-1H-imidazo[4,5-c]quinolin-2-yl}methyl)carbamate], the results for the IC50 (against LRRK2 wild type enzyme; in test [1]) were 1.92 nM and 165 nM, respectively.
Taken in the same sequence, the figures for `C[C@@H]1C[C@H](n2c([C@@H]3CCCN(C(=O)C4CC4)C3)nc3cnc4ccc(C#N)cc4c32)CCO1` [Compound 28, 2-[(3R)-1-cyclopropanecarbonylpiperidin-3-yl]-1-[(2R,4R)-2-methyloxan-4-yl]-1H-imidazo[4,5-c]quinoline-8-carbonitrile] were 12.3 nM and 773 nM.
